From US12522601B2, “1,3,4-oxadiazole derivative compounds as histone deacetylase 6 inhibitor, and the pharmaceutical composition comprising the same” (CHONG KUN DANG PHARMACEUTICAL CORP., priority 2020, dated 2026)

Experiments:
human recombinant HDAC1 = target: T1, human recombinant HDAC1 (Homo sapiens, UniProt Q13547); assay: In vitro HDAC enzyme activity inhibition assay, HDAC1 (HDAC Fluorimetric Drug Discovery Kit); type: biochemical; conditions: human recombinant HDAC1, Fluor de Lys-SIRT1 substrate 10 μM, 30° C. for 60 minutes
T1 construct: purchased Enzo Life Sciences, Inc. BML-SE456
T1 sequence (Q13547 whole entry): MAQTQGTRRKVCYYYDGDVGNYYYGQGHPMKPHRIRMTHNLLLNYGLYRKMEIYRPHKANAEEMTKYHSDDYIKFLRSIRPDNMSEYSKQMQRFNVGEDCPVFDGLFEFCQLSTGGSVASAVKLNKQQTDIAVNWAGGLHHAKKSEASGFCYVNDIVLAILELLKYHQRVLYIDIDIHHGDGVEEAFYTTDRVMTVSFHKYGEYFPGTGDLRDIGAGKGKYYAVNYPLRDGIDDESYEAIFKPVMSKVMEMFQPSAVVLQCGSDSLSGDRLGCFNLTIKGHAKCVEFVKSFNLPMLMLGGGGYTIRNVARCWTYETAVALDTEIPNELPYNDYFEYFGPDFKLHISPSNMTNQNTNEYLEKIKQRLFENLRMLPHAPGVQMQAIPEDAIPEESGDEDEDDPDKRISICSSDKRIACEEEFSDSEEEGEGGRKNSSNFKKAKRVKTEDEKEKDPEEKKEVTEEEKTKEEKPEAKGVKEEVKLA
Method in brief: (§1)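 Both HDAC1 and HDAC6 (human recombinant, 0.3 μg) tested identically: 10 μM fluorogenic Fluor de Lys-SIRT1 substrate, reaction 60 min at 30° C, developer added for 30 min. IC50 calculated from Ex 360/Em 460 signal over 5-fold serial dilutions.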

human recombinant HDAC6 = target: T2, human recombinant HDAC6 (Homo sapiens, UniProt Q9UBN7); assay: In vitro HDAC enzyme activity inhibition assay, HDAC6 (HDAC Fluorimetric Drug Discovery Kit); type: biochemical; conditions: for HDAC6 Selectivity (fold): HDAC6 versus HDAC1; for IC50: human recombinant HDAC6, same protocol as the HDAC1 test
T2 construct: purchased Calbiochem Inc. 382180
T2 sequence (Q9UBN7 1-1215): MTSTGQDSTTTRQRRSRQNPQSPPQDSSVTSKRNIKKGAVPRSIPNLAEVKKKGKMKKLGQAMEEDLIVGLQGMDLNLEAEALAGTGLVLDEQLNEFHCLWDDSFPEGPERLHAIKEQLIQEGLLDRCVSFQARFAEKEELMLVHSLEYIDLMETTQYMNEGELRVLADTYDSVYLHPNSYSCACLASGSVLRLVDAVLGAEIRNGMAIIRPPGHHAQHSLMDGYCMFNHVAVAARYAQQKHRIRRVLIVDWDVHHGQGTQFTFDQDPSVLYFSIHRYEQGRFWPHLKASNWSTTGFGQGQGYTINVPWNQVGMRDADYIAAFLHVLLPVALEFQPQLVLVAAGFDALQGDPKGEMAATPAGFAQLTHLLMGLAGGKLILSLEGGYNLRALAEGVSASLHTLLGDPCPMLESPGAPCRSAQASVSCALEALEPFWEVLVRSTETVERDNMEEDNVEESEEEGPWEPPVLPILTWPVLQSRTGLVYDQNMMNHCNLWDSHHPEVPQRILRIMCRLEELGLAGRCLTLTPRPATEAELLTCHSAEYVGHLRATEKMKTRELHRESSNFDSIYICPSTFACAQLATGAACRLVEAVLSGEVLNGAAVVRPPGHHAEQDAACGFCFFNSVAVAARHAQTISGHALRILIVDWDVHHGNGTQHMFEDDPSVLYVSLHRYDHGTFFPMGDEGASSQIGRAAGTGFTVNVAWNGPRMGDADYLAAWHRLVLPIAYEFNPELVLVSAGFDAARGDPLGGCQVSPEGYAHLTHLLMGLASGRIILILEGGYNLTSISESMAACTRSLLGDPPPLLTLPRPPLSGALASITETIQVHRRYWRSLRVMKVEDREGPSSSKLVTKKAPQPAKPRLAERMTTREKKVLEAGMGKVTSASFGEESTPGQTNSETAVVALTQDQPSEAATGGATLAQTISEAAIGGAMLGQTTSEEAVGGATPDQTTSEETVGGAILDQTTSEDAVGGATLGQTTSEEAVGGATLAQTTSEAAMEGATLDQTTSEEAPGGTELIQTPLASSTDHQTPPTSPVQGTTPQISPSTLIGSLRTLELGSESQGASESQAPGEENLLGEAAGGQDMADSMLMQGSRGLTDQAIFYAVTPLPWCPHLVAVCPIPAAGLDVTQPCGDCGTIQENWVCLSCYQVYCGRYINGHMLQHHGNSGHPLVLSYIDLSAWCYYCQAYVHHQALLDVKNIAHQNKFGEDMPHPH
Method in brief: as §1

Row | SMILES | IC50 (human recombinant HDAC1) | HDAC6 Selectivity (fold) (human recombinant HDAC6) | IC50 (human recombinant HDAC6)
1 | O=C(C1CCN(c2ncccn2)CC1)N(Cc1cn2ccc(-c3nnc(C(F)F)o3)cc2n1)c1ccccc1 [Compound 4132, N-((7-(5-(difluoromethyl)-1,3,4-oxadiazol-2-yl)imidazo[1,2-a]pyridin-2-yl)methyl)-N-phenyl-1-(pyrimidin-2-yl)piperidine-4-carboxamide] | > 50000 nM | 76 fold | 655 nM
2 | CCC(=O)N1CCN(C(=O)N(Cc2cn3ccc(-c4nnc(C(F)F)o4)cc3n2)c2cccc(F)c2)CC1 [Compound 4093, N-((7-(5-(difluoromethyl)-1,3,4-oxadiazol-2-yl)imidazo[1,2-a]pyridin-2-yl)methyl)-N-(3-fluorophenyl)-4-propionylpiperazine-1-carboxamide] | > 50000 nM | 256 fold | 195 nM
3 | CN(C)C(=O)N1CCN(C(=O)N(Cc2cn3ccc(-c4nnc(C(F)F)o4)cc3n2)c2ccccc2)CC1 [Compound 4047, N1-((7-(5-(difluoromethyl)-1,3,4-oxadiazol-2-yl)imidazo[1,2-a]pyridin-2-yl)methyl)-N4,N4-dimethyl-N1-phenylpiperazine-1,4-dicarboxamide] | > 50000 nM | 400 fold | 125 nM
4 | CN1CCN(C(=O)N(Cc2cn3ccc(-c4nnc(C(F)F)o4)cc3n2)c2cccc(F)c2)CC1 [Compound 4083, N-((7-(5-(difluoromethyl)-1,3,4-oxadiazol-2-yl)imidazo[1,2-a]pyridin-2-yl)methyl)-N-(3-fluorophenyl)-4-methylpiperazine-1-carboxamide] | > 50000 nM | 108 fold | 465 nM
5 | O=C(N1CCN(C(=O)C(F)(F)F)CC1)N(Cc1cn2ccc(-c3nnc(C(F)F)o3)cc2n1)c1cccc(F)c1 [Compound 4096, N-((7-(5-(difluoromethyl)-1,3,4-oxadiazol-2-yl)imidazo[1,2-a]pyridin-2-yl)methyl)-N-(3-fluorophenyl)-4-(2,2,2-trifluoroacetyl)piperazine-1-carboxamide] | > 50000 nM | 121 fold | 413 nM
6 | O=C(C1CCC1)N1CCC(C(=O)N(Cc2cn3ccc(-c4nnc(C(F)F)o4)cc3n2)c2ccccc2)CC1 [Compound 4125, 1-(cyclobutanecarbonyl)-N-((7-(5-(difluoromethyl)-1,3,4-oxadiazol-2-yl)imidazo[1,2-a]pyridine-2-yl)methyl)-N-phenylpiperidine-4-carboxamide] | > 50000 nM | 152 fold | 329 nM
7 | O=C(N1CCN(c2ccccn2)CC1)N(Cc1cn2ccc(-c3nnc(C(F)F)o3)cc2n1)c1cccc(F)c1 [Compound 4100, N-((7-(5-(difluoromethyl)-1,3,4-oxadiazol-2-yl)imidazo[1,2-a]pyridin-2-yl)methyl)-N-(3-fluorophenyl)-4-(pyridin-2-yl)piperazine-1-carboxamide] | > 50000 nM | 107 fold | 468 nM

Continued, values first:

Row | IC50 (human recombinant HDAC1) | HDAC6 Selectivity (fold) (human recombinant HDAC6) | IC50 (human recombinant HDAC6) | SMILES
8 | > 50000 nM | 271 fold | 185 nM | CCC(=O)N1CC(C(=O)N(Cc2cn3ccc(-c4nnc(C(F)F)o4)cc3n2)c2cccc(F)c2)C1 [Compound 4198]
9 | > 50000 nM | 218 fold | 229 nM | COC(=O)N1CCC(C(=O)N(Cc2cn3ccc(-c4nnc(C(F)F)o4)cc3n2)c2cccc(F)c2)CC1 [Compound 4154, methyl 4-(((7-(5-(difluoromethyl)-1,3,4-oxadiazol-2-yl)imidazo[1,2-a]pyridin-2-yl)methyl)(3-fluorophenyl)carbamoyl)piperidine-1-carboxylate]
10 | > 50000 nM | 228 fold | 220 nM | O=C(C1CCC1)N1CC(C(=O)N(Cc2cn3ccc(-c4nnc(C(F)F)o4)cc3n2)c2cccc(F)c2)C1 [Compound 4200, 1-(cyclobutanecarbonyl)-N-((7-(5-(difluoromethyl)-1,3,4-oxadiazol-2-yl)imidazo[1,2-a]pyridine-2-yl)methyl)-N-(3-fluorophenyl) azetidine-3-carboxamide]
11 | > 50000 nM | 363 fold | 138 nM | CS(=O)(=O)N1CCC(C(=O)N(Cc2cn3ccc(-c4nnc(C(F)F)o4)cc3n2)c2cccc(F)c2)CC1 [Compound 4153, N-((7-(5-(difluoromethyl)-1,3,4-oxadiazol-2-yl)imidazo[1,2-a]pyridin-2-yl)methyl)-N-(3-fluorophenyl)-1-(methylsulfonyl)piperidine-4-carboxamide]
12 | > 50000 nM | 131 fold | 381 nM | CN(C)C(=O)N1CC(C(=O)N(Cc2cn3ccc(-c4nnc(C(F)F)o4)cc3n2)c2ccccc2)C1 [Compound 4175, N3-((7-(5-(difluoromethyl)-1,3,4-oxadiazol-2-yl)imidazo[1,2-a]pyridin-2-yl)methyl)-N1,N1-dimethyl-N3-phenylazetidine-1,3-dicarboxamide]
13 | > 50000 nM | 112 fold | 447 nM | CN1CC(C(=O)N(Cc2cn3ccc(-c4nnc(C(F)F)o4)cc3n2)c2ccccc2)C1 [Compound 4158, N-((7-(5-(difluoromethyl)-1,3,4-oxadiazol-2-yl)imidazo[1,2-a]pyridin-2-yl)methyl)-1-methyl-N-phenylazetidine-3-carboxamide]
14 | > 50000 nM | 452 fold | 111 nM | O=C(C1CN(C2CCC2)C1)N(Cc1cn2ccc(-c3nnc(C(F)F)o3)cc2n1)c1cccc(F)c1 [Compound 4192, 1-cyclobutyl-N-((7-(5-(difluoromethyl)-1,3,4-oxadiazol-2-yl)imidazo[1,2-a]pyridin-2-yl)methyl)-N-(3-fluorophenyl) azetidine-3-carboxamide]
15 | > 50000 nM | 245 fold | 204 nM | O=C(C1COC1)N1CCC(C(=O)N(Cc2cn3ccc(-c4nnc(C(F)F)o4)cc3n2)c2cccc(F)c2)CC1 [Compound 4151, N-((7-(5-(difluoromethyl)-1,3,4-oxadiazol-2-yl)imidazo[1,2-a]pyridin-2-yl)methyl)-N-(3-fluorophenyl)-1-(oxetane-3-carbonyl)piperidine-4-carboxamide]
16 | > 50000 nM | 61 fold | 815 nM | O=C(CO)N1CC(C(=O)N(Cc2cn3ccc(-c4nnc(C(F)F)o4)cc3n2)c2ccccc2)C1 [Compound 4169, N-((7-(5-(difluoromethyl)-1,3,4-oxadiazol-2-yl)imidazo[1,2-a]pyridin-2-yl)methyl)-1-(2-hydroxyacetyl)-N-phenylazetidine-3-carboxamide]
